In patent publication US8840886B2, “Method of treating cancer with DLL4 antagonist and chemotherapeutic agent” (Regeneron Pharmaceuticals, Inc., priority 2009, dated 2014):

How the values were obtained:
Assay type in all cases: in vivo, mouse
[1] = system: human HCT116 tumor cells (CRC); assay: HCT116 colorectal xenograft tumor growth, REGN421 with 5-FU (Example 5)
Procedure: The effect of anti-Dll4 Ab (REGN421) in combination with 5-FU on tumor growth was evaluated on tumors implanted in humanized Dll4 SCID mice. Each mouse was implanted subcutaneously (sc) with 5×10^6 human HCT116 tumor cells (CRC). After the tumors were established in the mice (tumor size of ˜150 mm^3, 22 days after implantation), tumors were measured and randomized. The mice were then treated with hFc, REGN421, 5-FU or combination of REGN421 and 5-FU. A total of 30 mice were divided into 6 groups (n=5 per cohort). The first group was treated sc with hFc at 2 mg/kg; the second group was treated sc with REGN421 at 2 mg/kg; the third and fourth groups were treated ip with 5-FU at 15 and 25 mg/kg, respectively; the fifth group was treated sc with REGN421 at 2 mg/kg and ip with 5-FU at 15 mg/kg; and the sixth group was treated sc with REGN421 at 2 mg/kg and ip with 5-FU at 25 mg/kg. REGN421 was administered every 3-4 days starting on day 22 and mice received three doses total. 5-FU was administered every 3-4 days starting on day 22 and mice received three doses total.
(§1) To assess the effects of REGN421 and 5-FU as single agents or in combination, the changes in tumor size (volume) were measured, beginning three days before the initial REGN421 treatment, and then on the day of each agent treatment (days 22, 26, 29) and thereafter every 3-4 days until tumors reach ˜600 mm^3 in size. In vivo tumor size is calculated using the formula (length×width^2)/2 (FIG. 3 and Table 5).

[2] = system: human VM-Cub1 tumor cells (bladder carcinoma cells); assay: VM-Cub1 bladder carcinoma xenograft tumor growth, REGN421 with cisplatin (Example 1); settings: for TGI: 4 doses, at day 32; for Euthanized: control cohort euthanized day 32; for TGD: time to 600 mm^3 vs control
Procedure: The effect of anti-Dll4 antibody (REGN421) in combination with cisplatin (platinol, cis-diamminedichloroplatinum) on tumor growth was evaluated on tumors implanted in Severe Combined Immunodeficiency (SCID) mice expressing a humanized Dll4 protein (humanized Dll4 SCID mice). The humanized Dll4 SCID mouse was made by replacing the entire extracellular domain of the mouse Dll4 gene with the corresponding extracellular region of the human Dll4 gene (7 kb) in embryonic stem (ES) cells. Homozygous hDll4 mice were generated and bred into SCID background.
Each mouse was implanted subcutaneously (sc) with 1×10^6 human VM-Cub1 tumor cells (bladder carcinoma cells) plus MATRIGEL™ (BD Biosciences, #354234). After the tumors were established in the mice (tumor size of 150-200 mm^3, approximately 14 days after implantation), tumors were measured, randomized and treated with hFc, REGN421, cisplatin, or combination of REGN421 and cisplatin. A total of 45 mice were divided into nine groups (n=5 per cohort). The first group was treated subcutaneously (sc) with hFc at 2 mg/kg; the second and third groups were treated sc with REGN421 at 0.5 and 2 mg/kg, respectively; the fourth and fifth groups were treated intraperitoneally (ip) with cisplatin at 0.5 and 2 mg/kg, respectively; the sixth group was treated sc with REGN421 at 0.5 mg/kg and ip with cisplatin at 0.5 mg/kg; the seventh group was treated sc with REGN421 at 0.5 mg/kg and ip with cisplatin at 2 mg/kg; the eighth group was treated sc with REGN421 at 2 mg/kg and ip with cisplatin at 0.5 mg/kg; and the ninth group was treated sc with REGN421 at 2 mg/kg and ip with cisplatin at 2 mg/kg. REGN421 was administered every 3-4 days starting on day 14 and mice received three doses total. Cisplatin was administered every 24 hours starting on day 14; mice received four doses total.
To assess the effects of REGN421 and cisplatin as single agents or in combination treatments, the changes in tumor size were recorded. Tumor growth was measured three days before the initial REGN421 treatment, on the day of each REGN421 treatment (days 14, 17 and 21) and thereafter every 3-4 days until tumors reached ˜600 mm^3 in size. In vivo tumor size was calculated using the formula (length×width^2)/2 (FIG. 1 and Table 1).
Tumor Growth Inhibition, TGI, was determined by calculating the difference in tumor size for treated (T) versus vehicle control (C) tumor at the day the control cohort was euthanized (i.e., at day 32); TGI=[1−(Tfinal−Tinitial)/(Cfinal−Cinitial)]×100.
Tumor growth delay, TGD, was assessed as the difference in days between treated (T) versus control (C) tumors when each cohort reached a specified tumor size. The predetermined tumor size for this experiment was 600 mm^3.

[3] = system: human A549 tumor cells (non-small cell lung cancer); assay: A549 NSCLC xenograft tumor growth, REGN421 with cisplatin (Example 2)
Procedure: The effect of REGN421 in combination with cisplatin on tumor growth was evaluated on tumors implanted in humanized Dll4 SCID mice, as described above. Each mouse was implanted subcutaneously (sc) with 5×10^6 human A549 tumor cells (non-small cell lung cancer or “NSCLC”). After the tumors were established in the mice (tumor size of 100-150 mm^3, approximately 29 days after implantation), tumors were measured, randomized and treated with hFc, REGN421, cisplatin or combination of REGN421 and cisplatin. A total of 36 mice were divided into 6 groups (n=6 per cohort). The first group was treated sc with hFc at 2 mg/kg; the second group was treated sc with REGN421 at 2 mg/kg; the third and fourth groups were treated ip with cisplatin at 2.5 and 4.5 mg/kg, respectively; the fifth group was treated sc with REGN421 at 2 mg/kg and ip with cisplatin at 2.5 mg/kg; and the sixth group was treated sc with REGN421 at 2 mg/kg and ip with cisplatin at 4.5 mg/kg. REGN421 was administered every 3-4 days starting on day 29 and mice received three doses total. Cisplatin was administered every 24 hours starting on day 29 and mice received two doses total.
To assess the effects of REGN421 and cisplatin as single agents or in combination we measured tumor size (volume), beginning three days before the initial REGN421 treatment, on the day of each agent treatment (days 29, 30, 33, 36) and thereafter every 3-4 days until tumors reached ˜600 mm^3 in size. In vivo tumor size was calculated using the formula (length×width^2)/2.

[4] = system: rat C6 tumor cells (glioblastoma cells); assay: C6 glioblastoma tumor growth in SCID mice, REGN577 with docetaxel (Example 3)
Procedure: The effect of anti-Dll4 antibody in combination with docetaxel (TAXOTERE®) on tumor growth was evaluated on tumors implanted in Severe Combined Immunodeficiency (SCID) mice. Each mouse was implanted subcutaneously (sc) with 1×10^6 rat C6 tumor cells (glioblastoma cells). After the tumors were established (tumor size of ˜100-150 mm^3, approximately 13 days after implantation), the mice were treated with hFc, docetaxel, Dll4 antibody, or a combination of docetaxel plus Dll4 antibody. Since these mice expressed mouse Dll4, the Dll4 Ab used in this experiment was prepared in-house, based on the published sequence (WO 2007/143689), and designated as REGN 577. […] A total of 30 tumor-bearing male mice were randomized into six groups (N=5). […] Starting from the day of initial treatment, body weight and tumors were measured twice a week until the mice were euthanized when tumors reached ˜600 mm^3 in size. Tumor size was calculated using the formula, (length×width^2)/2.

[5] = system: human MDA-MB-231 breast tumor cells; assay: MDA-MB-231 breast tumor growth in SCID mice, REGN577 with docetaxel (Example 4); settings: for reduction of tumor growth: at Day 63
Procedure: The effect of anti-Dll4 antibody in combination with docetaxel (TAXOTERE®, sanofi-aventis) on tumor growth was evaluated on tumors implanted in Severe Combined Immunodeficiency (SCID) mice. Each mouse was implanted ‘pseudo-orthotopically’ (subcutaneously into mammary gland #3) with 5×10^6 human MDA-MB-231 breast tumor cells with MATRIGEL™ (BD Biosciences lot #84540). After the tumors were established in the mice (tumor size of ˜150-200 mm^3, approximately 45 days after implantation), mice were treated with hFc, docetaxel, Dll4 antibody, or a combination of docetaxel plus Dll4 antibody. A total of 25 tumor-bearing […] mice were randomized into five groups (N=5 mice per group). The first group was treated subcutaneously with hFc (at 25 mg/kg) and intravenously (iv) with vehicle; the second group was treated with Dll4 antibody REGN577 sc at 5 mg/kg; the third group was treated with docetaxel iv at 4.5 mg/kg; the fourth group was treated with docetaxel iv at 6 mg/kg; the fifth group was treated with docetaxel iv at 6 mg/kg plus REGN577 sc at 5 mg/kg. Docetaxel and/or Dll4 antibody were administered on the same day. Animals were treated 2 times per week and received a total of 3 doses. Starting from the day of initial treatment, body weight and tumors were measured twice a week until the mice are euthanized. Mice were euthanized when tumors reached ˜600 mm^3 in size. Tumor size was calculated using the formula (length×width^2)/2.

human HCT116 tumor cells = assay: HCT116 xenograft tumor growth, REGN421 with irinotecan (Example 6)
Procedure: Each mouse was implanted subcutaneously (sc) with 5×10^6 human HCT116 tumor cells. After the tumors were established in the mice (tumor size of ˜150 mm^3, 15 days after implantation), tumors were measured and randomized. The mice were then treated with hFc, REGN421, irinotecan or combination of REGN421 and irinotecan. A total of 30 mice were divided into 6 groups (n=5 per cohort). The first group was treated sc with hFc at 2 mg/kg; the second group was treated sc with REGN421 at 2 mg/kg; the third and fourth groups were treated ip with irinotecan at 7.5 and 25 mg/kg, respectively; the fifth group was treated sc with REGN421 at 2 mg/kg and ip with irinotecan at 7.5 mg/kg; and the sixth group was treated sc with REGN421 at 2 mg/kg and ip with irinotecan at 25 mg/kg. REGN421 was administered every 3-4 days starting on day 15 and mice received three doses total. Irinotecan was administered every 3-4 days starting on day 15 and mice received three doses total.
as §1, with “irinotecan” for “5-FU”, “combination treatments,” for “combination,”, “are” for “were”, “starting” for “beginning”, “15, 19, 22)” for “22, 26, 29)”, “(length×width^2)/2.” for “(length×width^2)/2 (FIG. 3 and Table 5).”

[6] = docetaxel 4.5 mg/kg iv (13.5 mg/kg total dose)
[7] = docetaxel 6 mg/kg iv (18 mg/kg total dose)

O=c1[nH]cc(F)c(=O)[nH]1 [5-FU, 5-fluorouracil]
TGD ([1]; 5-FU 15 mg/kg ip (45 mg/kg total dose)): 4 days
TGD ([1]; 5-FU 25 mg/kg ip (75 mg/kg total dose)): 2 days

N.N.[Cl][Pt][Cl] [Cisplatin, cis-diamminedichloroplatinum]
TGI ([2]; cisplatin 0.5 mg/kg/dose ip): 60.7%
TGI ([2]; cisplatin 0.5 mg/kg/dose ip, listed as cisplatin): 61%
Euthanized ([2]; cisplatin 0.5 mg/kg/dose ip): 45 days
TGD ([2]; cisplatin 0.5 mg/kg/dose ip): 13 days
TGI ([2]; cisplatin 2 mg/kg/dose ip): 53.8%
TGI ([2]; cisplatin 2 mg/kg/dose ip, listed as cisplatin): 54%
Euthanized ([2]; cisplatin 2 mg/kg/dose ip): 41 days
TGD ([2]; cisplatin 2 mg/kg/dose ip): 9 days
TGD ([3]; cisplatin 2.5 mg/kg ip (5 mg/kg total dose)): 4 days
TGD ([3]; cisplatin 4.5 mg/kg ip (9 mg/kg total dose)): 11 days

CC(=O)O[C@@]12CO[C@@H]1C[C@H](O)[C@@]1(C)C(=O)[C@H](O)C3=C(C)[C@@H](OC(=O)[C@H](O)[C@@H](NC(=O)OC(C)(C)C)c4ccccc4)C[C@@](O)([C@@H](OC(=O)c4ccccc4)[C@H]21)C3(C)C [Docetaxel, docetaxel]
TGD [4, 6]: 6 days
TGD [4, 7]: 7 days
TGD [5, 6]: 4 days
reduction of tumor growth ([5]; docetaxel 4.5 mg/kg iv): 37%
TGD [5, 7]: 4 days
reduction of tumor growth ([5]; docetaxel 6 mg/kg iv): 52%

CCc1c2c(nc3ccc(OC(=O)N4CCC(N5CCCCC5)CC4)cc13)-c1cc3c(c(=O)n1C2)COC(=O)[C@]3(O)CC [Irinotecan, irinotecan]
TGD (human HCT116 tumor cells; irinotecan 7.5 mg/kg ip (22.5 mg/kg total dose)): 8 days
TGD (human HCT116 tumor cells; irinotecan 25 mg/kg ip (75 mg/kg total dose)): 16 days
